The nature of the data set: gradient 5% acetonitrile 3 min, to 50% in 2 min, to 85% in 15 min, held 3 min, 100 µL/min. To be noted: column: Zorbax Extend-C18 2.1 x 50 mm; eluents: water / acetonitrile, 0.1% formic acid. In short, it runs like this:
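In both positive and negative ionization mode, a quadrupole time-of-flight mass spectrometer coupled to HPLC analyzed pure standards run in mixtures of ~100 molecules. The Zorbax Extend-C18 column (2.1 × 50 mm, 1.8 μm) was operated at 100 μL/min with water and acetonitrile, each containing 0.1% formic acid. The dead volume was 40 μL and the dwell volume 900 μL. Retention time came from adduct peaks that were computationally picked and individually inspected by hand.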
Take `CCOC(=O)c1sc2ccccc2c1S(=O)(=O)Nc1ccc2c(c1)OCO2`: the RP-LC retention time worked out at 968 s.

As to `COc1ccc(S(=O)(=O)N2CCc3nc(-c4ccccc4)ncc3C2)cc1Cl`, the RP-LC retention time is 1090 s.

For the compound `Cc1noc2ncnc(N3CCC(C(=O)NCCN(C)C)CC3)c12`, the RP-LC retention time was 567 s.

`c1ccc(-c2nc(-c3cnccn3)no2)c(OC2CCN(Cc3ccc4c(c3)CCO4)C2)c1` (stereo not given) showed an RP-LC retention time of 689 s.

For `Cc1ccc2c(c1)C(=O)NC1(CCN(C(=O)Cc3ccccc3Cl)CC1)N2C`, the RP-LC retention time was found to be 841 s.

For the compound `O=C(Nc1ccc(OCc2nnc(-c3ccccc3)o2)cc1)c1ccoc1`, the RP-LC retention time was 808 s.

As for `CC(C)CC(=O)Nc1ccc(S(=O)(=O)N2CCCC2c2nc(-c3ccc(F)cc3)no2)cc1` (stereo not given), the RP-LC retention time is 1080 s.

Regarding `CCN1C(=O)COc2cc(-c3noc(C(=O)NC4CCCCCC4)n3)ccc21`, the RP-LC retention time amounted to 1050 s.

In the case of `Cc1cc(S(=O)(=O)N2CCc3nc(-c4ccc(Cl)cc4)ncc3C2)ccc1F`, the RP-LC retention time stood at 1260 s.

Turning to `O=C(C1=NNc2ccc(Cl)cc2S1(=O)=O)N1CCOCC1`, the RP-LC retention time was determined as 663 s.

In the case of `O=C(c1ccc(Cl)cc1)N1CCc2cc(CNS(=O)(=O)Cc3ccccc3)ccc21`, the RP-LC retention time was found to be 981 s.

For the compound `CC(C)Cn1cc(CCNC(=O)Nc2cccc(Cl)c2)c2cccnc21`, the RP-LC retention time was 895 s.

`Cc1cccc(NC(=O)c2nc(N3CCSCC3)c3cnn(C)c3n2)c1` yielded an RP-LC retention time of 901 s.

The compound `CCOC(=O)N1CCN(C(=O)CSc2ccc(-c3ccc(OC)cc3)nn2)CC1` returned an RP-LC retention time of 716 s.

Consider `Cc1nc(N2CCCC(C(=O)NC(C)C)C2)c2c(C)c(C)oc2n1` (stereo not given), for which the RP-LC retention time stood at 712 s.

As to `COc1cccc2cc(C(=O)Nc3ccc4c(c3)C(=O)Nc3ccccc3O4)oc12`, the RP-LC retention time is 950 s.

Consider `CCCNC(=O)C1CCCN(c2ccc(SCC(=O)Nc3cc(C)ccc3C)nn2)C1` (stereo not given), for which the RP-LC retention time worked out at 656 s.

As for `CCn1c(=O)c2ccnn2c2ccc(C(=O)O)cc21`, the RP-LC retention time came out at 662 s.

Take `COC(=O)c1c2c(nc3ccccc13)CCN(C(=O)Nc1ccccc1)C2`: the RP-LC retention time was determined as 743 s.

On to `CCC1CCCCN1Cc1nc(Cn2ccn3nc(-c4ccc(OC)cc4)cc3c2=O)no1` (stereo not given), for which the RP-LC retention time was 679 s.

`Cc1ccc(F)cc1NC(=O)Cn1nc2nc(N3CCCC(C)C3)ccn2c1=O` (stereo not given) yielded an RP-LC retention time of 804 s.

For the compound `C=CCN1CCN(C(=O)C2CCN(c3cc(Nc4ccc(C)cc4)ncn3)CC2)CC1`, the RP-LC retention time came to 572 s.

Compound `COc1ccc(Cl)cc1-n1c(SCC(=O)N2CCC(C(N)=O)CC2)nc2ccccc2c1=O` showed an RP-LC retention time of 717 s.

`Cc1ccc2[nH]cc(CCN3CC(C(=O)NC4CCCCCCC4)CC3=O)c2c1` (stereo not given): the RP-LC retention time amounted to 907 s.

Regarding `CCOc1cccc(-c2noc(Cn3cnc4c(nnn4-c4ccccc4OC)c3=O)n2)c1`, the RP-LC retention time is 979 s.

Turning to `CCCCNC(=O)Cn1c(=O)c2cnc(-c3ccc(Cl)cc3)nc2n(C)c1=O`, the RP-LC retention time worked out at 982 s.

`CCN1CCCn2cc(S(=O)(=O)Nc3ccc(C)cc3C)cc2C1=O` showed an RP-LC retention time of 763 s.

`COc1ccccc1CNC(=O)CN1CCN(Cc2cccc(Cl)c2)C1=O` came in with an RP-LC retention time of 848 s.

`CCCNc1cc(N2CCC(CCC(=O)Nc3ccc(C)cc3C)CC2)ncn1` returned an RP-LC retention time of 733 s.

As for `CCCC(NCc1ccc2c(c1)n(C)c(=O)n2C)c1ccccc1` (stereo not given), the RP-LC retention time was found to be 635 s.

`CCN1C(=O)COc2ccc(-c3noc(COc4ccc(F)cc4)n3)cc21`: the RP-LC retention time amounted to 1030 s.

For `Cc1cc(N2CCN(C(=O)c3ccccc3)CC2)nc(N2CCOCC2)n1`, the RP-LC retention time amounted to 612 s.

`CC(C)Cn1c(=O)c(C(=O)NCc2ccccc2F)nc2cccnc21` displayed an RP-LC retention time of 868 s.

As to `COc1ccc(-n2c(=O)c(C(=O)NCC3CCCO3)c(O)c3cccnc32)cc1` (stereo not given), the RP-LC retention time came to 947 s.

In the case of `CCCc1cc(N2CCN(C(=O)c3ccc(C)s3)CC2)nc2nnc(C)n12`, the RP-LC retention time turned out to be 643 s.

On to `Cn1cc(-c2nc(C(=O)Nc3cccc(F)c3)cs2)c2cccnc21`, for which the RP-LC retention time turned out to be 1020 s.

`CC(=O)N1CCc2cc(C(=O)N3CCOCC3)ccc21` gave an RP-LC retention time of 607 s.

Compound `CCn1cc(S(=O)(=O)Nc2cc(Cl)ccc2OC)c2cccnc21` came in with an RP-LC retention time of 908 s.

In turn, `COc1ccc(NC(=O)C2CCN(S(=O)(=O)c3ccc4[nH]c(=O)sc4c3)CC2)cc1Cl` had an RP-LC retention time of 821 s.

The compound `O=C(c1cc(-c2cccc(F)c2)ns1)N1CCCC1` registered an RP-LC retention time of 924 s.

Compound `CN(C)CCCNc1oc(-c2ccc(F)cc2)nc1S(=O)(=O)c1ccccc1` returned an RP-LC retention time of 678 s.

`CCn1cnnc1C1CCN(C(=O)C2(c3ccc(OC)cc3)CC2)CC1` registered an RP-LC retention time of 599 s.

On to `CC(=O)N1CCc2cc(N3CC(C(=O)Nc4ccc(C(F)(F)F)cc4)CC3=O)ccc21` (stereo not given), for which the RP-LC retention time was determined as 798 s.

Consider `CC(C)N1CCn2c(nc3cc(C(=O)NCc4ccccc4Br)ccc32)C1=O`, for which the RP-LC retention time came to 731 s.

The compound `Cn1cccc1C(=O)NCCn1c(=O)n(Cc2ccc(F)cc2)c2cccnc21` gave an RP-LC retention time of 804 s.

For the compound `O=C(O)CN1C(=O)CN=C(c2ccccn2)c2cc(Cl)ccc21`, the RP-LC retention time was 696 s.

Compound `Clc1ccc(Cc2nc3nc4c(c(N5CCN(c6ccccn6)CC5)n3n2)CCCC4)cc1` registered an RP-LC retention time of 718 s.

Take `Cn1c(C(=O)NCc2ccc(F)cc2)cc2sccc21`: the RP-LC retention time stood at 663 s.

The compound `Cc1cc(Cl)ccc1S(=O)(=O)N1CCC(n2cnnc2C)CC1` came in with an RP-LC retention time of 745 s.

`O=C(COc1ccccc1)N1CCN(S(=O)(=O)c2cc3c4c(c2)CCC(=O)N4CCC3)CC1`: the RP-LC retention time stood at 782 s.

The compound `COc1ccc2[nH]c(=O)c(CCC(=O)NCCCN3CCCCC3C)cc2c1` (stereo not given) returned an RP-LC retention time of 589 s.

As to `Cc1ccc(N2CCN(c3nccn4c(=O)n(CC(=O)Nc5cc(C)cc(C)c5)nc34)CC2)cc1`, the RP-LC retention time came out at 1030 s.

For `COCCCNC(=O)C1(C)CCC(=O)N1CCc1c[nH]c2ccccc12` (stereo not given), the RP-LC retention time was determined as 668 s.

On to `CCS(=O)(=O)N1CCc2c(c(CN(C(=O)c3ccccc3)c3ccccc3)nn2C)C1`, for which the RP-LC retention time worked out at 775 s.

`Cc1cccc(Cn2nc3n(c2=O)CCCCC3)c1` displayed an RP-LC retention time of 763 s.

`O=c1n(CC2CC2)nc2n1CCN(S(=O)(=O)c1ccccc1C(F)(F)F)C2` yielded an RP-LC retention time of 803 s.

`COCCN1CC2(CCCC2)N(Cc2cc(C(F)(F)F)ccc2Cl)CC1=O` gave an RP-LC retention time of 1060 s.

Take `CC(C)Sc1ccc(CC(=O)NCC(C)(O)c2ccccc2)cc1` (stereo not given): the RP-LC retention time came out at 841 s.

`CC1CCN(S(=O)(=O)c2ccc3c(c2)CCCC(=O)N3CC(=O)N2CCCC2)CC1` displayed an RP-LC retention time of 819 s.

With `CC(C)CCC(=O)N1CCc2nc(N3CCN(C)CC3)sc2C1`, the RP-LC retention time amounted to 609 s.

As to `CCOc1ccc(S(=O)(=O)N2CCCC(C(=O)NCCCO)C2)cc1C` (stereo not given), the RP-LC retention time is 736 s.

`Cc1cc(OCC(=O)Nc2ccc(Br)cc2F)nc(N2CCCCC2)n1` had an RP-LC retention time of 666 s.

For the compound `Cc1nc2c(c(Nc3cc(C(=O)O)ccc3C)n1)CCC2`, the RP-LC retention time was determined as 584 s.

`CCOC(=O)CC(=O)Nc1cc2c(cc1N1CCOCC1)n(C)c(=O)n2C` yielded an RP-LC retention time of 660 s.

The compound `O=C(Nc1cccnc1)C1CCc2nc(N3CCCCC3)ncc2C1` (stereo not given) yielded an RP-LC retention time of 583 s.

In turn, `O=C(Cn1c(=O)oc2ccccc21)N1[C@H]2CC[C@@H]1c1cnc(-c3ccc(F)cc3)nc1C2` registered an RP-LC retention time of 912 s.

The compound `O=C(CCc1nc(-c2ccc(N3CCCCC3)cc2)no1)NCCC1=CCCCC1` displayed an RP-LC retention time of 1090 s.

As to `CCn1c(=O)c(N2CCC(NC(=O)Nc3cccc(Br)c3)CC2)nc2ccccc21`, the RP-LC retention time worked out at 1040 s.

`NC(=O)c1[nH]c2ccc(F)cc2c1N1CCCC1=O` showed an RP-LC retention time of 637 s.

Regarding `CC(C)c1cc(C2CCCN2C(=O)c2cccs2)no1` (stereo not given), the RP-LC retention time worked out at 862 s.

`CCOc1cc(=O)c(C(=O)N2CCC(C(N)=O)CC2)nn1-c1ccc(OC)cc1` registered an RP-LC retention time of 609 s.

Take `CCCn1nccc1-c1csc(S(=O)(=O)N2CCC3(CC2)OCCO3)c1`: the RP-LC retention time came to 906 s.

With `CCOc1ccc(CCNC(=O)c2cc3sc(Cl)cc3n2C)cc1OCC`, the RP-LC retention time was found to be 1110 s.

Compound `COc1ccc(-c2noc(COC(=O)C3=CN(Cc4ccccc4)S(=O)(=O)N=C3C)n2)cc1` gave an RP-LC retention time of 1090 s.

`CC(=O)N1CCc2c(-c3ccccc3)cccc2[C@H]1C` had an RP-LC retention time of 976 s.

`Cc1ccc(S(=O)(=O)N2CC(Cc3nncn3C3CCCC3)C2)cc1F`: the RP-LC retention time is 747 s.

For the compound `Cc1cc(=O)n(CC(=O)Nc2cccc(C#N)c2)c(N2CCOCC2)n1`, the RP-LC retention time stood at 604 s.

The compound `O=C(O)c1nnn(-c2cc(F)cc(F)c2)c1-c1ccccn1` yielded an RP-LC retention time of 680 s.

Compound `O=C(NCCc1csc(-c2ccccc2)n1)[C@H]1CCCN1C(=O)C1CCCC1` gave an RP-LC retention time of 814 s.

The compound `Cc1sc(C)c(S(=O)(=O)N2CCC(C)CC2)c1-c1cc(C(F)(F)F)on1` displayed an RP-LC retention time of 1320 s.
